{
  "source": "patent US7655800B2",
  "about": "“Crystalline 1H-imidazo[4,5-b]pyridin-5-amine, 7-[5-[(cyclohexylmethylamino)-methyl]-1H-indol-2-yl]-2-methyl, sulfate (1:1), trihydrate and its pharmaceutical uses” (Eisai R & D Management Co., Ltd., priority 2005, dated 2010)",
  "type_in_all_cases": "physicochemical",
  "key": {"[1]": {"experiment": "Solubility in water of amorphous versus crystalline E6070", "conditions": "in words"}, "[2]": {"experiment": "Hygroscopicity measurements (controlled-atmosphere microbalance, adsorption/desorption isotherm)", "conditions": "for hygroscopicity: general statement, in words", "procedure": "Hygroscopicity Measurements: Samples were exposed to various relative humidity (RH) conditions at 25° C. using an automated controlled-atmosphere microbalance, MB-300W (VTI Corporation, FL, USA). In this system, a sample was suspended in an isothermal chamber at 25° C., and the RH was regulated from 5% to 95% by adjusting the relative flow rates of dry (0% RH) and moist (100% RH) nitrogen. The weight of the sample was measured every 2 min with the microbalance. The weight stability criterion employed for the equilibrium was that the maximum weight change for each measurement was less than 0.2% (w/w)."}, "[3]": {"experiment": "Physical stability of crystalline E6070 under stressed storage (XRD, TG-DTA)", "procedure": "Crystalline E6070 was placed on the sample platform of an X-ray powder diffractometer (RINT-2000, Rigaku, Japan) and analyzed under the conditions shown in Table 3.\nThermal Analyses: Using a Rigaku Thermoflex TAS20 TG8101D (Rigaku, Tokyo, Japan) therogravimetric-differential thermal analyses (TG-DTA) were performed under the measurement conditions in Table 9. The temperature axis and the cell constant were calibrated with indium. The solid sample (1-5 mg) was accurately weighed into an open aluminum pan and then heated.\nThe physical stability of crystalline E6070 was evaluated under the following two conditions: 60° C. for a month and 40° C./75% RH (open) for a month."}, "[4]": {"conditions": "40° C./75% RH (open) for a month"}},
  "note": "Where a name gives a salt, the structure may show the parent alone.",
  "data": [
    {"smiles": "Cc1nc2nc(N)cc(-c3cc4cc(CN(C)C5CCCCC5)ccc4[nH]3)c2[nH]1", "note": "[crystalline E6070, 1H-imidazo[4,5-b]pyridin-5-amine, 7-[5-[(cyclohexylmethylamino)-methyl]-1H-indol-2-yl]-2-methyl, sulfate (1:1), trihydrate]", "values": [
      {"measurement": "solubility in water", "setting": "[1]", "result": "much less soluble in water"},
      {"measurement": "moisture uptake or loss on exposure to controlled humidities", "setting": "[2]; from 0% to 93% RH at 25° C.", "result": "not found to take up or lose any moisture"},
      {"measurement": "hygroscopicity", "setting": "[2]; listed as Crystalline E6070, trihydrate", "result": "very low hygroscopicity"},
      {"measurement": "hygroscopicity", "setting": "[2]; trihydrate", "result": "non-hygroscopic"},
      {"measurement": "TG-DTA thermogram after storage compared with initial", "setting": "[3]; [4]", "result": "same TG-DTA thermogram as the initial"},
      {"measurement": "change in XRD pattern after storage", "setting": "[3]; [4]", "result": "no change"},
      {"measurement": "TG-DTA thermogram after storage compared with initial", "setting": "[3]; 60° C. for a month", "result": "same TG-DTA thermogram as the initial"},
      {"measurement": "change in XRD pattern after storage", "setting": "[3]; 60° C. for a month", "result": "no change"},
      {"measurement": "physical stability in the solid state (conclusion)", "setting": "[3]; both stressed conditions, one month", "result": "physically stable in the solid state"}
    ]}
  ]
}
